{"source": "patent US8158589B2", "about": "“Peptides with the capacity to bind to transforming growth factor β1 (TGF-β1)” (Proyecto Biomedicine Cima, S.L., priority 2003, dated 2012)", "key": {"TGF-β1 [1]": {"target": "T1, TGF-β1 (Homo sapiens, UniProt P01137)", "T1 sequence (P01137 279-390 limits assumed)": "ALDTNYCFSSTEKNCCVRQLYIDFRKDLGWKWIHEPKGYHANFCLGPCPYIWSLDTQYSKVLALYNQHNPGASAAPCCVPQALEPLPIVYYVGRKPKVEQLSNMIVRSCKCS", "experiment": "CTGF mRNA expression induced by TGF-β1 in IMR-90 lung fibroblasts, real time RT-PCR", "type": "cell-based", "design": "purchased R&D Systems; host or cells: added to IMR-90 human lung fibroblasts", "conditions": "IMR-90 cells, 5 ng/ml TGF-β1, peptide 100 μg/ml, 6 hours", "procedure": "(§1) IMR-90 human lung fibroblasts (ATCC, Manassas, Va.) were cultured in EMEM medium (Cambrex, Belgium) supplemented with 10% fetal bovine serum (FBS), 1 mM sodium pyruvate, 0.1 mM nonessential amino acids, 100 U/ml penicillin and 100 μg/ml streptomycin (Gibco BRL, UK). For experiments, 6×10^4 cells/well were cultured in 6-well plates in 2 ml of medium and when they were 80% confluent, medium was replaced with serum-free EMEM for 48 h to induce quiescence. TGF-β1 (5 ng/ml) and P17 (100 μg/ml) were co-incubated for 90 min at 37° C. to allow binding of both molecules before addition to cell cultures. Quiescent cells were then stimulated with TGF-β1 and/or P17 for up to 6 or 24 h. After these incubation periods, fibroblasts were harvested for gene and protein analysis, respectively.\nTotal RNA was purified from IMR-90 fibroblasts and whole lung samples using Ultraspec RNA (Biotecx; Houston, Tex.) according to the manufacturer's instructions. […] Expression of human Connective Tissue Growth Factor (CTGF) mRNA induced by TGF-β1 in IMR-90 fibroblasts was measured by real time RT-PCR using an ICycler and IQ SYBR Supermix (Bio-Rad, Italy). […] For in vivo analysis, expression of murine Fibronectin (FN), extra domain A of Fibronectin (EDA-FN), Collagen type I and Interferon gamma (IFN-γ) was measured in lungs, using Histone 3 as internal control. […]"}, "TGF-β1 [2]": {"target": "T1, TGF-β1", "experiment": "α-SMA expression induced by TGF-β1 in IMR-90 lung fibroblasts, western blot", "type": "cell-based", "design": "purchased R&D Systems; host or cells: added to IMR-90 human lung fibroblasts", "conditions": "IMR-90 cells, 5 ng/ml TGF-β1, peptide 100 μg/ml, 24 hours", "procedure": "as §1\nTo assess alpha-Smooth Muscle Actin (αSMA) expression, IMR-90 fibroblasts were lysed with RIPA buffer containing 10 U/ml leupeptin, 10 U/ml pepstatin, 1 mM phenylmethanesulfonylfluoride (PMSF), 1 mM Na3VO4 and 1 mM NaF. […] Membranes were analyzed for expression of αSMA protein using anti-αSMA monoclonal antibody (Sigma-Aldrich) at a dilution of 1:2000 and horseradish peroxidase-labeled anti-mouse IgG (Sigma-Aldrich). Expression of actin was detected using anti-actin monoclonal antibody (Sigma-Aldrich) (1:2000 dilution) and horseradish peroxidase-labeled anti-rabbit IgG (Sigma-Aldrich). […]"}}, "note": "Ends that are not written are not given here."}
{"sequence": "KRIWFIPRSSWYERA [SEQ ID NO: 17, KRIWFIPRSSWYERA]", "values": [{"measurement": "CTGF mRNA expression induced by TGF-β1", "setting": "TGF-β1 [1]", "value": "significantly decreased"}, {"measurement": "α-SMA expression induced by TGF-β1", "setting": "TGF-β1 [2]", "value": "inhibited"}]}
